≈ marks a conversion by molar mass, not a printed value. Calls of active or inactive are those of the source. No cut-off for these calls is given here.
What was measured:
Micrococcus luteus = experiment: Antibacterial activity against Micrococcus luteus at 100 ug/disk by disk susceptibility test; assay type: functional, organism-based
Cryptococcus neoformans = experiment: Antimicrobial activity against Cryptococcus neoformans at 100 ug/disk by disk susceptibility test; assay type: functional, organism-based
Staphylococcus aureus [1] = experiment: Antibacterial activity against Staphylococcus aureus at 100 ug/disk by disk susceptibility test; assay type: functional, organism-based
Neisseria gonorrhoeae = experiment: Antibacterial activity against Neisseria gonorrhoeae at 100 ug/disk by disk susceptibility test; assay type: functional, organism-based
P388 = experiment: Cytotoxicity against mouse P388 cells; assay type: functional; settings: read-out: ED50 (the source's name)
Staphylococcus aureus [2] = experiment: Antibacterial activity against Staphylococcus aureus by disk susceptibility test; assay type: functional

`C[C@@]1(CO)CCC[C@]2(C)[C@H]3C[C@@H](O)[C@]4(C)C5=C(CC[C@H]4[C@]3(C)CC[C@@H]12)COC5=O` [SESTERSTATIN 3] was tested, and the Activity (Micrococcus luteus) was “inactive”, the Activity (Cryptococcus neoformans) was “inactive” and the Activity (Staphylococcus aureus [1]) was “inactive”. For the same compound, the Activity (Neisseria gonorrhoeae) was “inactive” and the EC50 (P388) was 4.3 µg/mL (≈ 10.7 µM).

In the case of `C[C@]1(CO)CCC[C@]2(C)[C@H]3C[C@@H](O)[C@]4(C)C5=C(CC[C@H]4[C@]3(C)CC[C@@H]12)COC5=O` [SESTERSTATIN 2], the MIC (Staphylococcus aureus [2]) is reported as 50 µg, the Activity (Micrococcus luteus) is reported as “inactive” and the Activity (Cryptococcus neoformans) is reported as “inactive”. The Activity (Neisseria gonorrhoeae) was “inactive” and the EC50 (P388) was 4.2 µg/mL (≈ 10.4 µM).

`CC1(C)[C@@H](O)CC[C@]2(C)[C@H]3C[C@@H](O)[C@]4(C)C5=C(CC[C@H]4[C@]3(C)CC[C@@H]12)COC5=O` [SESTERSTATIN 1] was tested, and the Activity (Micrococcus luteus) was “inactive”, the Activity (Cryptococcus neoformans) was “inactive” and the Activity (Staphylococcus aureus [1]) was “inactive”. For the same compound, the Activity (Neisseria gonorrhoeae) was “inactive” and the EC50 (P388) was 0.46 µg/mL (≈ 1.14 µM).
